Laboratory results taken from patent US12180207B2 (ARRAY BIOPHARMA INC., priority 2018, dated 2024).

Legend:
[1] = target: HEK-293 cells transfected with dox-inducible human wild type FGFR1 (Homo sapiens (Human), UniProt P11362); assay: FGFR1 pERK cell assay; format: cell-based; settings: HEK-293 dox-inducible FGFR1, 1 hour compound, 100 ng/ml FGF-acidic; maximum concentration 5 μM
Description: (§1) FGFR1 pERK Cell Assay: • HEK-293 cells transfected with doxycycline(dox)-inducible human wild type FGFR1 (SEQ ID NO: 1) were plated in a collagen or poly-D-lysine coated 96 well flat bottom plates at 4×10^5 cells/well in complete Dulbecco's Modified Eagle Medium (DMEM) containing 10% FBS and 1 μg/ml doxycycline and allowed to attach for 24 h at 37° C., 5% CO2. Cells were treated with compound using 1:3 serial dilutions with a maximum final concentration of 5 μM. Compound was incubated on cells for 1 hour at 37° C., 5% CO2. Cells were then stimulated with a final concentration of 100 ng/ml human FGF-acidic (R&D Systems Cat number 232-FA/CF) for 5 minutes at 37° C., 5% CO2. Medium was removed, and cells were lysed with lysis buffer containing phosphatase and protease inhibitors. Phospho ERK1/2 was measured using the Meso Scale Discovery sandwich assay (Meso Scale Discovery cat. no. K151DWD). The assay captures phospho ERK1/2 and detects with a sulfo-tagged total ERK1/2 antibody. The chemiluminescent signal was read on the Sector Imager Plate reader. 100 POC was determined using no test compound and 0 POC was determined using a control compound. The POC values were fit to a 4-parameter logistic curve as a function of the concentration of the compound, and the IC50 value is the point where the curve crosses 50 POC.

[2] = target: T1, HEK-293 cells transfected with dox-inducible human wild type FGFR3 (Homo sapiens (Human), UniProt P22607); assay: FGFR3 pERK cell assay; format: cell-based; settings: HEK-293 dox-inducible FGFR3, 1 hour compound, 100 ng/ml FGF-acidic; maximum concentration 5 μM
Description: as §1, with “FGFR3 pERK” for “FGFR1 pERK”, “with dox-inducible” for “with doxycycline(dox)-inducible”, “type FGFR3” for “type FGFR1”, “NO: 5)” for “NO: 1)”, “complete DMEM medium” for “complete Dulbecco's Modified Eagle Medium (DMEM)”, “test compounds” for “test compound”

[3] = target: HEK-293 cells transfected with dox-inducible human wild type FGFR2 (Homo sapiens (Human), UniProt P21802); assay: FGFR2 pFGFR cell assay (ELISA); format: cell-based; settings: HEK-293 dox-inducible FGFR2, 1 hour compound, 30 ng/ml FGF-acidic
Description: (§2) FGFR2 pFGFR Cell Assay: • HEK-293 cells transfected with dox-inducible human wild type FGFR2 (SEQ ID NO: 3) were plated in a collagen or poly-D-lysine coated 96 well flat bottom plates at 4×10^5 cells/well in complete DMEM medium containing 10% FBS and 1 μg/ml doxycycline and allowed to attach for 24 h at 37° C., 5% CO2. Cells were treated with compound using 1:3 serial dilutions with a maximum final concentration of 5 μM. Compound was incubated on cells for 1 hour at 37° C., 5% CO2. Cells were then stimulated with a final concentration of 30 ng/ml human FGF-acidic (R&D Systems Cat number 232-FA/CF) for 5 minutes at 37° C., 5% CO2. Medium was removed and cells were lysed with lysis buffer containing phosphatase and protease inhibitors. Phospho FGFR2 was measured by ELISA (R&D Systems cat. no. DYC684). The ELISA captures total FGFR2 and detects total phospho tyrosine. Optical density was measured for each well using a Versamax reader at a wavelength of 450 nm. 100 POC was determined using no test compounds and 0 POC was determined using a control compound. The POC values were fit to a 4-parameter logistic curve as a function of the concentration of the compound, and the IC50 value is the point where the curve crosses 50 POC.

[4] = target: dephosphorylated FGFR1 (SEQ ID NO: 1, amino acids 458 to 765) (Homo sapiens (Human), UniProt P11362); assay: FGFR enzyme binding assay (HTRF tracer displacement), FGFR1; settings: 5 nM dephosphorylated FGFR1, average of multiple determinations if made
Procedure, shortened: (§3)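 Kinase and tracer were incubated with compound for 60 minutes at 22° C. Tracer displacement was then measured by HTRF, and results were expressed as POC with 1 μM control inhibitor defining full displacement.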

[5] = target: phosphorylated FGFR3 (SEQ ID NO: 5, amino acids 449 to 759) (Homo sapiens (Human), UniProt P22607); assay: FGFR enzyme binding assay (HTRF tracer displacement), FGFR3; settings: 5 nM phosphorylated FGFR3, average of multiple determinations if made
Procedure, shortened: as §3

[6] = target: recombinant human FGFR1 catalytic domain (amino acids 308-731) (Homo sapiens (Human), UniProt P11362); assay: FGFR1 enzyme activity assay (LanthaScreen TR-FRET); format: biochemical; settings: 20 min incubation at 22° C., average of multiple determinations if made, read-out: FGFR1 Enz FRET IC50
Procedure, shortened: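 His-tagged FGFR1 kinase domain with 100 nM Alexa Fluor 647-poly-GT peptide and ATP in pH 7.5 HEPES/MgCl2 buffer with 2% DMSO, 20 min at 22 °C. Quenched with EDTA plus 2 nM Eu-PY20 antibody and read after 60 min. IC50 comes from a 4-parameter fit of percent of control.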

[7] = target: recombinant human FGFR3 (amino acids R397-T806) (Homo sapiens (Human), UniProt P22607); assay: FGFR3 enzyme activity assay (LanthaScreen TR-FRET); format: biochemical; settings: 25 μM ATP, 10 min incubation at 22° C., average of multiple determinations if made, read-out: FGFR3 Enz FRET IC50
Procedure, shortened: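 GST-HIS6-tagged human FGFR3 (R397-T806) was reacted with 100 nM Alexa Fluor 647-Poly-GT substrate and 25 μM ATP plus compound in HEPES/MgCl2/Triton buffer, pH 7.5, 2% DMSO, for 10 min at 22 °C.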

[8] = target: FGFR1 (SEQ ID NO: 1, amino acids 458-765) (Homo sapiens (Human), UniProt P11362); assay: LC/MS FGFR1 kobs assay (covalent protein modification); format: binding; settings: 500 nM FGFR1, 3 μM compound
Procedure, shortened: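 Covalent labeling of FGFR1 kinase domain (aa 458-765) tracked over time by intact-protein LC/MS after formic acid quench. kobs derived by fitting DMSO-normalized percent unmodified FGFR1 to an exponential decay model.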

[9] = target: T1, HEK-293 cells transfected with dox-inducible human wild type FGFR3; assay: FGFR3 pFGFR cell assay (ELISA); format: cell-based; settings: HEK-293 dox-inducible FGFR3, 1 hour compound, 100 ng/ml FGF-acidic
Description: as §2, with “FGFR3” for “FGFR2”, “5)” for “3)”, “top” for “maximum”, “100” for “30”, “FGF-acidic” for “FGF-acidic (R&D Systems Cat number 232-FA/CF)”, “cat DYC2719).” for “cat. no. DYC684).”

[10] = target: recombinant human FGFR2 cytoplasmic domain (amino acids 403-822) (Homo sapiens (Human), UniProt P21802); assay: FGFR2 enzyme activity assay (LanthaScreen TR-FRET); format: biochemical; settings: 15 μM ATP, 20 min incubation at 22° C., average of multiple determinations if made, read-out: FGFR2 Enz FRET IC50
Procedure, shortened: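 Substrate phosphorylation was read by TR-FRET using Eu-PY20 antibody (60 min, 22 °C) after a 20 min, 22 °C reaction. The reaction used 15 μM ATP, 100 nM fluorescent poly-GT peptide and His-tagged FGFR2 403-822 ([…]) at pH 7.5 with 2% DMSO.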

[11] = target: FGFR3 (SEQ ID NO: 5, amino acids 449-759) (Homo sapiens (Human), UniProt P22607); assay: LC/MS FGFR3 kobs assay (covalent protein modification); format: binding; settings: 500 nM FGFR3, 3 μM compound
Procedure, shortened: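 Samples are acid-quenched at set times and read by Q-TOF mass spectrometry. kobs is obtained by fitting DMSO-normalized percent unmodified protein to an exponential decay model.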

phosphorylated FGFR3 (SEQ ID NO: 5, amino acids 449 to 759), sequence (P22607 449-759): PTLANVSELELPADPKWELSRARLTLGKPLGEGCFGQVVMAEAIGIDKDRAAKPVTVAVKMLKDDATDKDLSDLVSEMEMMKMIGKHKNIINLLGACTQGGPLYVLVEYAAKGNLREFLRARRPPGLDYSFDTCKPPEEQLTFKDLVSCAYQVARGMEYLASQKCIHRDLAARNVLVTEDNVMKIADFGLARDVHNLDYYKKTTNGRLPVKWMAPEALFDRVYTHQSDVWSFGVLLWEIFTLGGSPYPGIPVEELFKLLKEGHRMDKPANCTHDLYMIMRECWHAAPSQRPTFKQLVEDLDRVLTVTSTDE
recombinant human FGFR3 (amino acids R397-T806), sequence (P22607 397-806): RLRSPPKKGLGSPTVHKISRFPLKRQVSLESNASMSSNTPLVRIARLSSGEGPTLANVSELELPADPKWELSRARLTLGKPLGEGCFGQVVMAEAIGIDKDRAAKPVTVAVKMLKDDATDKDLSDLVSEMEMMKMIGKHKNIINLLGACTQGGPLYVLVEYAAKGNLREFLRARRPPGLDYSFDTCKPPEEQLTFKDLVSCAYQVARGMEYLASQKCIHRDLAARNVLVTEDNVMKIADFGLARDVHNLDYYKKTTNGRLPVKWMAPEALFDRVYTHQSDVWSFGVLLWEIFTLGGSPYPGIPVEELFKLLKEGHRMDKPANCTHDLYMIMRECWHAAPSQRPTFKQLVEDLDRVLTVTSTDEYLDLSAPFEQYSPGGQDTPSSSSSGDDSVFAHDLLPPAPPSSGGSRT
T1 sequence (P22607 23-806): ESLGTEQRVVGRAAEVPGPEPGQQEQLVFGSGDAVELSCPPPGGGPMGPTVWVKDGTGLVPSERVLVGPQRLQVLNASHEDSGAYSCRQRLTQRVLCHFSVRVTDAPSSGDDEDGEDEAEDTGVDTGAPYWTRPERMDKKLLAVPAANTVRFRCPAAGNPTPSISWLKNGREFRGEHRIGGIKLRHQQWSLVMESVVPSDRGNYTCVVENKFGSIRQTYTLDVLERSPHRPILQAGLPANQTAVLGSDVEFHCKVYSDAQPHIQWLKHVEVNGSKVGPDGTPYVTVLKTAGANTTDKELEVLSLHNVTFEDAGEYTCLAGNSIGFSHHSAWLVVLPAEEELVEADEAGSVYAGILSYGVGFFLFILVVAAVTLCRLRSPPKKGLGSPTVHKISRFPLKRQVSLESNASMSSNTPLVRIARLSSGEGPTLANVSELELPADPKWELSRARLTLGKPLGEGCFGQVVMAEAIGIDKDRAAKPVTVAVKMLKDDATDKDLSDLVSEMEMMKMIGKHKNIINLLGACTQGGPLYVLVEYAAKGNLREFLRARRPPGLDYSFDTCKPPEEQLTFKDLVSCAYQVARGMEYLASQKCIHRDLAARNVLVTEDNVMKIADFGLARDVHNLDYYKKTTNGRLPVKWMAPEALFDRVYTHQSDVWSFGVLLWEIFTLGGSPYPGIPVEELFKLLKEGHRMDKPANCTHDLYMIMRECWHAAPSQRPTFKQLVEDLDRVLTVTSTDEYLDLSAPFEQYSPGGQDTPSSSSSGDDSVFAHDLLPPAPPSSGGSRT
dephosphorylated FGFR1 (SEQ ID NO: 1, amino acids 458 to 765), sequence (P11362 458-765): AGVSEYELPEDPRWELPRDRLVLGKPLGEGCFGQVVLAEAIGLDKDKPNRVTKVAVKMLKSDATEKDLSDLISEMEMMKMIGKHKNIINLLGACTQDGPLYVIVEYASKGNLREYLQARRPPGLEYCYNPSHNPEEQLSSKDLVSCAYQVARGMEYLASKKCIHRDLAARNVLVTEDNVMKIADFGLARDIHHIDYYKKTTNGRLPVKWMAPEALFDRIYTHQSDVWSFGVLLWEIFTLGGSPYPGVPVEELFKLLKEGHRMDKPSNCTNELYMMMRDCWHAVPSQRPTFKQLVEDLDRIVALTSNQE
recombinant human FGFR1 catalytic domain (amino acids 308-731), sequence (P11362 other isoform, or with tags, fused parts or gaps): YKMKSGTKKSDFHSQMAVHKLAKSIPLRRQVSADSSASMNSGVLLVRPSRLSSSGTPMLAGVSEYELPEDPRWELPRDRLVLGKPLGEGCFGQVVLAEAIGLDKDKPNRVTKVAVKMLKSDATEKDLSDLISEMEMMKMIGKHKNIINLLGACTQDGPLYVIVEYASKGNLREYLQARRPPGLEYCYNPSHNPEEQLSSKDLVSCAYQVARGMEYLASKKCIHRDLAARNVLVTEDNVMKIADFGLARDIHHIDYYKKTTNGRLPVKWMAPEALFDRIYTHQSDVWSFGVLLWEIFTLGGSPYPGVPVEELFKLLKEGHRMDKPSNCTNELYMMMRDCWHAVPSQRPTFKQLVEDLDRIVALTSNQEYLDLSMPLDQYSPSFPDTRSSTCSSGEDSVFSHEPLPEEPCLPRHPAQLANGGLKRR
FGFR3 (SEQ ID NO: 5, amino acids 449-759), sequence (P22607 449-759): as the sequence (P22607 449-759) above
recombinant human FGFR2 cytoplasmic domain (amino acids 403-822), sequence (P21802 402-821): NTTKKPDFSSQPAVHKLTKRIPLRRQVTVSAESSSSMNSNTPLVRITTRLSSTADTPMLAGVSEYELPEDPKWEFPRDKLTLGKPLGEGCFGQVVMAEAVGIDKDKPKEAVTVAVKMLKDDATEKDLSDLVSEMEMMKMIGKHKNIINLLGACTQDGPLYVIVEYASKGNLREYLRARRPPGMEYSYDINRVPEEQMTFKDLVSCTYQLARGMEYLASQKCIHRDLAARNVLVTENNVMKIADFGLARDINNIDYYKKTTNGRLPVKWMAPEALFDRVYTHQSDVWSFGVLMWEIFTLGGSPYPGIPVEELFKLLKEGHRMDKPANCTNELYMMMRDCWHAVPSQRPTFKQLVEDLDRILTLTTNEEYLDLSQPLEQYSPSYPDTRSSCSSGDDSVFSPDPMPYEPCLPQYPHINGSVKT
HEK-293 cells transfected with dox-inducible human wild type FGFR2, sequence (P21802 22-821): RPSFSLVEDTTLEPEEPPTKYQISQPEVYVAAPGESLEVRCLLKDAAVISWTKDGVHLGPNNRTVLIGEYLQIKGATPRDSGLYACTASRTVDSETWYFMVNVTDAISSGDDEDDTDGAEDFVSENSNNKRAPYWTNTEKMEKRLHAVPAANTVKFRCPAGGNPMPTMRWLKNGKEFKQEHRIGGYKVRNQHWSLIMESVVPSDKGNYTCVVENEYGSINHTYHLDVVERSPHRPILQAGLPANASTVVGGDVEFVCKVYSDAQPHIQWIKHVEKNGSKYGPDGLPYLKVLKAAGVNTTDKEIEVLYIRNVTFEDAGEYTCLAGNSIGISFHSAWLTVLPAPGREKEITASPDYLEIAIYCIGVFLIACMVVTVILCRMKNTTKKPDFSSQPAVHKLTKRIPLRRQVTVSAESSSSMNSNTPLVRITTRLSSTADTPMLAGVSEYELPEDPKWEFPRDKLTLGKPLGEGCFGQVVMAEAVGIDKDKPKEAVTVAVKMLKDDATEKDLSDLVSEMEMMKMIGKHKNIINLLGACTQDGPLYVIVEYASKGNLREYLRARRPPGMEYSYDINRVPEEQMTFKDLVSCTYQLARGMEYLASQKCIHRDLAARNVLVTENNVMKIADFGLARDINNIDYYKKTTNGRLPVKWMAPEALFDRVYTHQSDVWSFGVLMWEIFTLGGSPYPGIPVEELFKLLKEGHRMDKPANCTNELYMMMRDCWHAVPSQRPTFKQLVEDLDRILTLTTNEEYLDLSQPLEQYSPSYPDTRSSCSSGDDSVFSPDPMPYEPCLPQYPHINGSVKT
FGFR1 (SEQ ID NO: 1, amino acids 458-765), sequence (P11362 458-765): as the sequence (P11362 458-765) above
HEK-293 cells transfected with dox-inducible human wild type FGFR1, sequence (P11362 22-822): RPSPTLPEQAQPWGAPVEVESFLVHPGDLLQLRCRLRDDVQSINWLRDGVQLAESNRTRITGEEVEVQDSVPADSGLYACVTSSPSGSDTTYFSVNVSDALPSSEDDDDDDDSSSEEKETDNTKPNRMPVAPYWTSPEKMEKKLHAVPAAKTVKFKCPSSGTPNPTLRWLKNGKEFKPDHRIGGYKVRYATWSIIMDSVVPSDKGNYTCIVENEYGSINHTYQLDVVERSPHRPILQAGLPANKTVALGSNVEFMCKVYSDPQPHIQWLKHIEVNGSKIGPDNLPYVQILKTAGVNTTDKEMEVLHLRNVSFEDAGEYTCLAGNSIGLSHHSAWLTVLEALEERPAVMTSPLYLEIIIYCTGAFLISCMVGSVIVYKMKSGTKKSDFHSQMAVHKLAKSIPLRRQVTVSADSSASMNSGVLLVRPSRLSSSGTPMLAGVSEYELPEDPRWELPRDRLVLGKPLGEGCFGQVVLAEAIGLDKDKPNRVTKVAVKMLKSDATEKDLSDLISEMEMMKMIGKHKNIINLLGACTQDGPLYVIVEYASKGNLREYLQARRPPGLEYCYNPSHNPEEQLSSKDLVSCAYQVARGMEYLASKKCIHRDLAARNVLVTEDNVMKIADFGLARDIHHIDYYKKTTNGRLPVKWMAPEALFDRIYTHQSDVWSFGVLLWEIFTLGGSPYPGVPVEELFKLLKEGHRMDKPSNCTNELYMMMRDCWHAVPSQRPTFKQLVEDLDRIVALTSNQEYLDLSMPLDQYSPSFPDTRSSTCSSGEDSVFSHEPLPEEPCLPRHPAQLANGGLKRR

| Compound | IC50 [1] | IC50 [2] | IC50 [3] | IC50 [4] | IC50 [5] | IC50 [6] | IC50 [7] | FGFR1 Enz kobs [8] | IC50 [9] | IC50 [10] | FGFR3 Enz kobs [11] |
| --- | --- | --- | --- | --- | --- | --- | --- | --- | --- | --- | --- |
| COc1cc(-c2cnn(C3CCN(C(=O)C4CN(C(=O)/C=C/CF)C4)CC3)c2)cn2ncc(C#N)c12 [Example 142] | 769 nM | 119 nM | 424 nM |  |  |  |  |  |  |  |  |
| COc1cc(-c2cnn(C3CCN(C(=O)/C=C/CN(C)C)CC3)c2)cn2ncc(C#N)c12 [Example 144, (E)-6-(1-(1-(4-(dimethylamino)benoyl)piperidin-4-yl)-1H-pyrazol-4-yl)-4-methoxypyrazol14 5o[1,5-a]pyridine-3-carbonitrile] |  |  | 34 nM |  |  |  |  |  |  |  |  |
| COc1cc(-c2cnn(C3CCN(C(=O)C4CN(C(=O)C#CCN(C)C)C4)CC3)c2)cn2ncc(C#N)c12 [Example 176, 6-(1-(1-(1-(4-(dimethylamino)but-2-ynoyl)azetidine-3-carbonyl)piperidin-4-yl)-1H-pyrazol-4-yl)-4-methoxypyrazolo[1,5-a]pyridine-3-carbonitrile] |  |  |  | 136 nM | 15 nM | 1200 nM | 1160 nM | 0.0497 min⁻¹ | 18 nM |  |  |
| C=CS(=O)(=O)N1CC(C(=O)N2CCC(n3cc(-c4cc(OC)c5c(C#N)cnn5c4)cn3)CC2)C1 [Example 192, 4-methoxy-6-(1-(1-(1-(vinylsulfonyl)azetidine-3-carbonyl)piperidin-4-yl)-1H-pyrazol-4-yl)pyrazolo[1,5-a]pyridine-3-carbonitrile] |  |  |  | 70 nM | 12 nM | 14 nM | 3 nM |  | 12 nM | 9 nM | 0.1008 min⁻¹ |
| C=CS(=O)(=O)N1CCC2(CC1)CC(C(=O)N1CCC(n3cc(-c4cc(OC)c5c(C#N)cnn5c4)cn3)CC1)C2 [Example 195, 4-methoxy-6-(1-(1-(7-(vinylsulfonyl)-7-azaspiro[3.5]nonane-2-carbonyl)piperidin-4-yl)-1H-pyrazol-4-yl)pyrazolo[1,5-a]pyridine-3-carbonitrile] |  |  |  | 50 nM | 4 nM | 19 nM | 5 nM |  | 14 nM | 7 nM | 0.02572 min⁻¹ |
